Our source for the TGI values is PubChem BioAssay (NCI).

Test systems include U251 CNS; SF-268 CNS; SK-OV-3 ovarian; COLO 205 colon; HCC-2998 colon; SR leukemia; EKVX NSCLC; IGROV1 ovarian; SK-MEL-28 melanoma; SK-MEL-5 melanoma; UACC-62 melanoma; CCRF-CEM leukemia; MALME-3M melanoma; NCI-H522 lung; OVCAR-5 ovarian; MDA-MB-435; SNB-75 CNS; TK-10 renal; HL-60(TB) leukemia.
What all share (experiment): NCI-60 cell line screen, 48 h

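1) Cells in 96-well plates. 2) Compound, 48 h, 5 concentrations. 3) Linear interpolation between surrounding doses. 4) Unreached endpoint = highest concentration. Definition used: TGI = concentration required for complete inhibition of growth.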 Some results are limits rather than exact numbers.

Take `COC(=O)C(Cc1nc2ccccc2[nH]c1=O)C(NO)C(=O)Nc1c(Cl)cc([N+](=O)[O-])cc1Cl` (stereo not drawn): the TGI with U251 CNS is 99 µM; in the test on SF-268 CNS, more than 100 µM; with SK-OV-3 ovarian, more than 100 µM; in the test on COLO 205 colon it was more than 100 µM; in the test with HCC-2998 colon, more than 100 µM; in the test with SR leukemia it was more than 100 µM. In addition, the TGI in the test on EKVX NSCLC was more than 100 µM; in the test on IGROV1 ovarian, more than 100 µM; in the test with SK-MEL-28 melanoma, more than 100 µM; in the test with SK-MEL-5 melanoma it was 46.4 µM; in the test on UACC-62 melanoma it was 34.5 µM; with CCRF-CEM leukemia it was 65.3 µM. The TGI in the test with MALME-3M melanoma was more than 100 µM; in the test with NCI-H522 lung, 31.3 µM.

Turning to `COc1cc(OC)c2c(C)cc(=O)oc2c1`, the TGI in the test on U251 CNS, in the test on SF-268 CNS, in the test with OVCAR-5 ovarian, with MDA-MB-435, with SK-OV-3 ovarian and in the test on COLO 205 colon was more than 100 µM each time. For the same molecule, the TGI with SNB-75 CNS, in the test on SR leukemia, with EKVX NSCLC, with IGROV1 ovarian, in the test on SK-MEL-28 melanoma and with SK-MEL-5 melanoma was more than 100 µM throughout. Further, the TGI in the test with UACC-62 melanoma, with CCRF-CEM leukemia, with TK-10 renal and with MALME-3M melanoma was more than 100 µM in each case.

Take `CCOC(=O)Cc1nc2cc(F)c(F)cc2[nH]c1=O`: the TGI with U251 CNS, in the test on SF-268 CNS, in the test with OVCAR-5 ovarian, with MDA-MB-435, with SK-OV-3 ovarian and in the test on COLO 205 colon was more than 100 µM in each case. Also, the TGI with HCC-2998 colon, with HL-60(TB) leukemia, with SNB-75 CNS, with EKVX NSCLC, with SK-MEL-28 melanoma and with SK-MEL-5 melanoma was more than 100 µM in each case. Further, the TGI in the test on UACC-62 melanoma, with CCRF-CEM leukemia, in the test on TK-10 renal and in the test with MALME-3M melanoma was more than 100 µM each time.

Turning to `N#C/C(=C/NC(N)=S)C(N)=O`, the TGI in the test on U251 CNS, in the test with SF-268 CNS, in the test on OVCAR-5 ovarian, in the test with MDA-MB-435, in the test on SK-OV-3 ovarian and in the test with COLO 205 colon was more than 100 µM throughout. Further, the TGI with HCC-2998 colon, in the test with HL-60(TB) leukemia, in the test on SNB-75 CNS, in the test on EKVX NSCLC, in the test on IGROV1 ovarian and in the test on SK-MEL-28 melanoma was more than 100 µM throughout. The TGI in the test on SK-MEL-5 melanoma and with TK-10 renal was more than 100 µM in each case.

As to `C[N+]1(C)CCc2cc(O)c(O)cc2C1Cc1ccc(O)c(O)c1` (stereo not drawn), the TGI in the test on U251 CNS is more than 100 µM; with SF-268 CNS it was more than 100 µM; in the test with OVCAR-5 ovarian, more than 100 µM; in the test on MDA-MB-435, 39.7 µM; in the test with SK-OV-3 ovarian it was more than 100 µM; with COLO 205 colon it was more than 100 µM. The TGI in the test on HL-60(TB) leukemia is 54.8 µM; with SR leukemia, 86.1 µM; with EKVX NSCLC, more than 100 µM; in the test on IGROV1 ovarian it was more than 100 µM; in the test with SK-MEL-28 melanoma, more than 100 µM; in the test on SK-MEL-5 melanoma, more than 100 µM. Also, the TGI in the test on UACC-62 melanoma is more than 100 µM; with TK-10 renal, more than 100 µM; in the test with MALME-3M melanoma it was 91.4 µM; in the test with NCI-H522 lung it was 58.4 µM.

`CC(=O)ONC(C(=O)C(C)(C)C)C(=O)C(C)(C)C`: the TGI with U251 CNS, in the test with SF-268 CNS, in the test on OVCAR-5 ovarian, with SK-OV-3 ovarian, with COLO 205 colon and in the test with HCC-2998 colon was more than 100 µM throughout. For the same molecule, the TGI in the test with HL-60(TB) leukemia, in the test with SNB-75 CNS, in the test with EKVX NSCLC, with IGROV1 ovarian, in the test with SK-MEL-28 melanoma and in the test on SK-MEL-5 melanoma was more than 100 µM throughout. Besides, the TGI in the test on CCRF-CEM leukemia, with TK-10 renal, in the test on MALME-3M melanoma and in the test on NCI-H522 lung was more than 100 µM each time.

Regarding `CC(C)=C[C@H]1CCC2(OCCO2)[C@]1(C)CO`, the TGI with SF-268 CNS, in the test on OVCAR-5 ovarian, in the test on MDA-MB-435, in the test with SK-OV-3 ovarian, in the test on COLO 205 colon and with HCC-2998 colon was more than 100 µM each time. Also, the TGI with SNB-75 CNS, in the test with EKVX NSCLC, with IGROV1 ovarian, with SK-MEL-28 melanoma, with SK-MEL-5 melanoma and in the test with CCRF-CEM leukemia was more than 100 µM in each case. Moreover, the TGI in the test with TK-10 renal, with MALME-3M melanoma and in the test on NCI-H522 lung was more than 100 µM in each case.

Turning to `O=c1cc(N2CCCC2)[nH]c(=O)n1-c1cccc(Cl)c1`, the TGI in the test with U251 CNS, in the test with SF-268 CNS, with OVCAR-5 ovarian, in the test on MDA-MB-435, in the test with SK-OV-3 ovarian and in the test on COLO 205 colon was more than 100 µM throughout. Besides, the TGI in the test with HCC-2998 colon, in the test on HL-60(TB) leukemia, with SNB-75 CNS, in the test on EKVX NSCLC, in the test on IGROV1 ovarian and in the test with UACC-62 melanoma was more than 100 µM each time. For the same molecule, the TGI with CCRF-CEM leukemia, with TK-10 renal, in the test with MALME-3M melanoma and in the test on NCI-H522 lung was more than 100 µM in each case.
